Patent publication US9346820B2, “HIV-1 protease inhibitors having gem-di-fluoro bicyclic P2-ligands” (priority 2013, dated 2016)
Where two headings read alike, the source gives them in different places.

Tests used:
[1] = tested on: HIV-1LAI; assay: Drug susceptibility MTT assay, MT-2 cells exposed to HIV-1LAI; assay type: cell-based; details: for Selectivity Index: ratio of CC50 to EC50 against HIV-1LAI
Method: (§1) The susceptibility of HIV-1LAI to various drugs was determined as previously described with minor modifications. Briefly, MT-2 cells (10^4/ml) were exposed to 100 50% tissue culture infectious doses (TCID50) of HIV-1LAI in the presence or absence of various concentrations of drugs in 96-well microculture plates and were incubated at 37° C. for 7 days. After 100 μl of the medium was removed from each well, 3-(4,5-dimetylthiazol-2-yl)-2,5-diphenyltetrazolium bromide (MTT) solution (10 μl, 7.5 mg/ml in phosphate-buffered saline) was added to each well in the plate, followed by incubation at 37° C. for 2 h. […] All assays were performed in duplicate or triplicate. […] To determine the sensitivity of primary HIV-1 isolates to drugs, phytohemagglutinin-stimulated peripheral blood mononuclear cells (PHA-PBMC) (10^6/ml) were exposed to 50 TCID50 of each primary HIV-1 isolate and cultured in the presence or absence of various concentrations of drugs in 10-fold serial dilutions in 96-well microculture plates. In determining the drug susceptibility of certain laboratory HIV-1 strains, MT-4 cells were employed as target cells as previously described with minor modifications. In brief, MT-4 cells (10^5/ml) were exposed to 100 TCID50 of drug-resistant HIV-1 strains in the presence or absence of various concentrations of drugs and were incubated at 37° C. On day 7 of culture, the supernatants were harvested and the amounts of p24 Gag protein were determined by using a fully automated chemiluminescent enzyme immunoassay system (Lumipulse F: Fujirebio Inc., Tokyo). […] All assays were performed in duplicate or triplicate. PHA-PBMs were derived from a single donor in each independent experiment. Thus, for obtaining the data, three different donors were recruited.

[2] = tested on: HIV-1GRL04810^RP18; assay: microbe, parasite or virus in culture; assay type: cell-based; details: for EC50: Human immunodeficiency virus 1, MT4, read-out: EC50 HIV-1GRL04810^RP18; for fold change of EC50 HIV-1GRL04810^RP18 vs HIV-1NL4-3: number in parentheses
Method: as §1
(§2) The amounts of p24 were measured every two days for up to 7 days.

[3] = tested on: HIV-1GRL05010^RP10; assay: microbe, parasite or virus in culture; assay type: cell-based; details: for EC50: Human immunodeficiency virus 1, MT4, read-out: EC50 HIV-1GRL05010^RP10; for fold change of EC50 HIV-1GRL05010^RP10 vs HIV-1NL4-3: number in parentheses
Method: as §1, §2

[4] = Apparent BBB permeability coefficient, in vitro BBB model (BBB Kit); details: rat and monkey
Method: The BBB Kit™ was kept at −80° C. until thawing on day 0 of the experiments. Nutritional medium was added to both brain and blood sides of the wells. This solution consists of DMEM F-12 medium with FCS 10% v/v, heparin 100 μg/ml, basic fibroblast growth factor (bFGF) 1.5 ng/ml, insulin 5 μg/ml, transferrin 5 μg/ml, sodium selenite 5 ng/ml, hydrocortisone 500 nM and gentamycin 50 μg/ml. Fresh medium was added 3 hours after thawing following the manufacturer's instructions, and 24 hours later. The plates were incubated at 37° C. until day 4 of the experiment when the condition of astrocytes was checked under a light microscope. Following this, the integrity of the collagen-coated membrane was verified by the measurement of the transendothelial electrical resistance (TEER) using an ohmmeter provided by the manufacturer. […] Detailed information regarding the components of the BBB Kit as well as its mechanisms can be seen by accessing the manufacturer's website http://www.pharmacocell.co.jp/en/bbb/index_e.html.
Standard curves were generated for each compound on a light spectrophotometer as previously described. 100 μM of each compound was added to the luminal (blood side) of the wells, incubated at 37° C. for 30 minutes and then, the amount of drug that crossed the in vitro BBB was collected and measured under a light spectrophotometer at 230 nanometer absorbances.
Papp was calculated using the following mathematical formula: […]
This model (BBB Kit™) is thought to represent an in vitro BBB model for drug transport assays, permitting an adequate cross-talk of the cell lines involved and provide a way to test an apparent passage of small molecules across the BBB as previously described by Nakagawa et al. (41). […] The concentrations of each compound that permeated into the abluminal interface (termed “brain side”) were determined using a spectrophotometer, 30 min after the addition of each drug to the wells.
The mathematical formula used for the calculation of Papp is described in Materials and Methods.

[5] = Cytotoxicity (CC50), MTT assay; assay type: cell-based; details: human
Method: The susceptibility of HIV-1LAI to various drugs was determined as previously described with minor modifications. Briefly, MT-2 cells (10^4/ml) were exposed to 100 50% tissue culture infectious doses (TCID50) of HIV-1LAI in the presence or absence of various concentrations of drugs in 96-well microculture plates and were incubated at 37° C. for 7 days. After 100 μl of the medium was removed from each well, 3-(4,5-dimetylthiazol-2-yl)-2,5-diphenyltetrazolium bromide (MTT) solution (10 μl, 7.5 mg/ml in phosphate-buffered saline) was added to each well in the plate, followed by incubation at 37° C. for 2 h. […] All assays were performed in duplicate or triplicate. […] In determining the drug susceptibility of certain laboratory HIV-1 strains, MT-4 cells were employed as target cells as previously described with minor modifications. In brief, MT-4 cells (10^5/ml) were exposed to 100 TCID50 of drug-resistant HIV-1 strains in the presence or absence of various concentrations of drugs and were incubated at 37° C. On day 7 of culture, the supernatants were harvested and the amounts of p24 Gag protein were determined by using a fully automated chemiluminescent enzyme immunoassay system (Lumipulse F: Fujirebio Inc., Tokyo). […] All assays were performed in duplicate or triplicate. PHA-PBMs were derived from a single donor in each independent experiment. Thus, for obtaining the data, three different donors were recruited.

[6] = tested on: HIV-1GRL-04810^RP18, and HIV-1GRL-05010^RP10; assay: p24 assay, the two GRL-selected variants taken together; assay type: cell-based; details: Human immunodeficiency virus 1, read-out: EC50 values against HIV-1GRL-04810^RP18 and HIV-1GRL-05010^RP10
Method: as §1

[7] = tested on: HIV-1LAI; assay: Antiviral activity of brain-side medium from the BBB assay, MTT assay in MT-2 cells; assay type: cell-based
Method: The “brain-side” of the medium containing a compound collected in the BBB in vitro assay, was subjected to antiviral assays. Two HIV-1 isolates were employed, HIV-1LAI (Panel A) and HIV-1ERS104pre (Panel B). […] Dilution ranges were between 10-fold and 10,000-fold, and the percentage of viral inhibition was used as an endpoint. […] Assays were conducted in duplicate and error bars show standard deviations.
The assay was carried out using 10, 100, 1000 and 10000 times-diluted brain-side stocks of compounds.

[8] = Human immunodeficiency virus 1, MT2, read-out: EC50 HIV-1LAI, MT-2 cells, 100 TCID50, MTT assay
[9] = read-out: EC50 HIV-1LAI, MT-2 cells, 100 TCID50, MTT assay
[10] = Human immunodeficiency virus 1, MT2, MT-2 cells, 100 TCID50, MTT assay, read-out: EC50 HIV-1LAI
[11] = 10-fold diluted brain-side medium
[12] = 100-fold diluted brain-side medium

Structure (SMILES)	EC50 [1, 8] [nM]	EC50 [1, 9] [nM]	EC50 [2] [nM]	EC50 [3] [nM]	Papp at 30 min, 100 μM [4] [×10⁻⁶ cm/s]	EC50 [1, 10] [nM]	Selectivity Index [1]	CC50 at 7 days [5] [nM]	fold change of EC50 HIV-1GRL04810^RP18 vs HIV-1NL4-3 [2] [fold]	fold change of EC50 HIV-1GRL05010^RP10 vs HIV-1NL4-3 [3] [fold]	EC50 [6] [nM]	Papp at 30 min, 100 μM ([4]; Papp) [×10⁻⁶ cm/s]	suppression of HIV-1LAI replication [7, 11] [%]	suppression of HIV-1LAI replication [7, 12] [%]	CC50 at 7 days ([5]; 50% cytotoxicity, read-out: CC50) [nM]	suppression levels of brain-side preparations compared (FIG. 5A) ([7]; HIV-1LAI)
CC(C)CN(C[C@@H](O)[C@H](Cc1ccccc1)NC(=O)O[C@H]1CO[C@H]2OCC[C@H]21)S(=O)(=O)c1ccc(N)cc1 [DRV, darunavir]	5 to 30	5 ± 1	41	37	9.9	–	–	–	–	–	–	–	–	–	–	–
COc1ccc(S(=O)(=O)N(CC(C)C)C[C@@H](O)[C@H](Cc2ccccc2)NC(=O)OC2CO[C@H]3OCC(F)(F)[C@@H]23)cc1 (some centres unmarked) [GRL-04810]	–	–	33	29	–	0.8	21,875	17500	66	58	29 to 39	47.8	94	45	–	–
COC(=O)N[C@H](C(=O)N[C@@H](Cc1ccccc1)[C@@H](O)CN(Cc1ccc(-c2ccccn2)cc1)NC(=O)[C@@H](NC(=O)OC)C(C)(C)C)C(C)(C)C [ATV, Atazanavir]	5 to 30	5 ± 1	325	95	–	–	5,720	28600 ± 900	81	24	–	15.4	–	–	–	–
CC(C)CN(C[C@@H](O)[C@H](Cc1ccccc1)NC(=O)O[C@H]1CO[C@H]2OCC(F)(F)[C@H]21)S(=O)(=O)c1ccc(N)cc1 [GRL-05010]	–	–	39	36	–	3	12,333	–	13	10	29 to 39	61.8	91	73	–	–
CC(C)(C)NC(=O)[C@@H]1C[C@@H]2CCCC[C@@H]2CN1C[C@@H](O)[C@H](Cc1ccccc1)NC(=O)[C@H](CC(N)=O)NC(=O)c1ccc2ccccc2n1 [SQV, Saquinavir]	–	–	32	36	–	–	843	–	1	1	32 to 36	4.9	–	–	17700 ± 3400	less than those of GRL-04810^brain and GRL-05010^brain
